How the values were obtained:
[1] = target: T1, mouse 11β-HSD1 (11β-hydroxysteroid dehydrogenase) (Mus musculus, UniProt P50172); test: scintillation proximity assay, [3H]cortisone to [3H]cortisol, microsomes overexpressing […]β-HSD1; type: biochemical
T1 construct: gene Hsd11b1; full-length cDNA, microsomal fraction of stably transfected HEK-293 cells

[2] = target: T2, human 11β-HSD1 (11β-hydroxysteroid dehydrogenase) (Homo sapiens, UniProt P28845); test: as above; type: biochemical
T2 construct: gene HSD11B1; full-length cDNA, microsomal fraction of stably transfected HEK-293 cells
T2 sequence (P28845 whole entry): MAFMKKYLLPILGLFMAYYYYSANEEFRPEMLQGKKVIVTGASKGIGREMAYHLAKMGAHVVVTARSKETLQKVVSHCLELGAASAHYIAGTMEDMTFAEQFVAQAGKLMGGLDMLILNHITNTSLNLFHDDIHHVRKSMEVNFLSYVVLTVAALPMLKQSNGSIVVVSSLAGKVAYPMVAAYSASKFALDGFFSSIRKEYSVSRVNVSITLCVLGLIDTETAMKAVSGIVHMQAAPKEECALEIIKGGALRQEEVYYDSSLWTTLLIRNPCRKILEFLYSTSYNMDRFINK

T1 sequence (P50172 whole entry): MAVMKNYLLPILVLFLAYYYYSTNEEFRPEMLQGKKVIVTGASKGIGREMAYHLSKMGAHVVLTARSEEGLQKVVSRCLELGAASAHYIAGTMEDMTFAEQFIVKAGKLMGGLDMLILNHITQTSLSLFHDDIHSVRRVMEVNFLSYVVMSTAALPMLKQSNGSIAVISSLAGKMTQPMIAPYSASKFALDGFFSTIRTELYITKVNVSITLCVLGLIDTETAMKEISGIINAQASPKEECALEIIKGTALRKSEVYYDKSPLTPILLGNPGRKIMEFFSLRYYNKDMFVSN

Row | IC50 [1] | IC50 [2] | SMILES
1 | 0.0065 µM | 0.0042 µM | CC1(C)[C@@H](O[C@H]2O[C@H](C(=O)O)[C@@H](O)[C@H](O)[C@H]2O[C@@H]2O[C@H](C(=O)O)[C@@H](O)[C@H](O)[C@H]2O)CC[C@]2(C)[C@H]3C(=O)C=C4[C@@H]5C[C@@](C)(C(=O)O)CC[C@]5(C)CC[C@@]4(C)[C@]3(C)CC[C@@H]12 [glycyrrhizinic acid]
2 | 13.9 µM | 6.2 µM | CC(C)C1=C(O)C(=O)C2=CC3=C(CO)C(=O)CC[C@@]3(C)CC[C@@]21C [compound 3, Guanacastepene R]

— publication PMC4050309, “Five New Guanacastane-Type Diterpenes from Cultures of the Fungus Psathyrella candolleana” (Natural Products and Bioprospecting, 2014)
